Where two headings read alike, the source gives them in different places.
Columns and labels:
[1] = Skin accumulation and PEA release after topical application on the paw (lipid extraction, HPLC)
Protocol: (§1) Frozen tissues samples were weighed and homogenized in a solution of methanol and a serine protease inhibitor, phenylmethylsulphonyl fluoride (PMSF, 1 mM). Then, homogenate tissues were subjected to methanol-chloroform-water (1:2:1, v/v/v) extraction. After centrifugation, the organic layer was carefully removed, transferred to another vial and purified by silica gel (60-Å, 230-400 mesh) micro-columns.
(§2) Molecules of interest were isolated by small-scale chromatography. Glass microcolumns (5 cm, ø 50 mm) were used. 1 ml of a mixture (1/1 v/v) of chloroform and silica gel (0.04-0.063 mm, 230-400 mesh, Macherey-Nagel) was used to load the columns. Samples were dissolved in 1 ml of chloroform and then loaded. Columns were washed with 1 ml of chloroform and 2 ml of chloroform/methanol (9/1 v/v), thus obtaining the fractions of interest that were collected and evaporated in vacuum. The extraction method was validated in blank experiments by treating skin with a known amount of each analyzed compound. Recovery percentages were calculated as well and they resulted higher than 85% for all the tested products.
(§3) HPLC analysis was performed on a Jasco apparatus (Jasco inc., Easton, Md., USA) composed by a quaternary gradient pump (PU 2089 Plus), a 25 μl Rheodyne injection valve and a multi-wave length UV detector (MD 2010 Plus). […] The specificity (absence of interfering peak from skin samples) was assessed as well.

[2] = system: carrageenan-induced hyperalgesia; test: Mechanical hyperalgesia after λ-carrageenan injection into the paw, topical application; format: in vivo, mice; conditions: for anti-hyperalgesic effect at earlier times: 2 and 4 h after application; for anti-hyperalgesic activity (paw withdrawal latency): topical on paw, dose equimolar to 1 mg PEA/paw, evaluated 2-96 h after carrageenan
Protocol: Male Swiss mice weighing 25 to 30 g were purchased from Harlan (Udine, Italy). They were housed in stainless steel cages in a room kept at 22±1° C. on a 12/12-h light/dark cycle. […] Each group of mice (n=6) was applied with 0.05 ml of ethanol solutions on dorsal surface of the left paw. After 5 minutes the animal received 50 μl of 1% λ-carrageenan in sterile saline injected into the treated paw. Absolute ethanol was used as vehicle in control animals. […] Mechanical hyperalgesia was assessed by measuring of latency (s) to withdraw the paw from a constant mechanical pressure exerted onto its dorsal surface. A 15-g calibrated glass cylindrical rod (diameter=10 mm) […] to a conical point (diameter=3 mm) was used to exert the mechanical force. The weight was suspended vertically between two rings attached to a stand and was free to move vertically. A cut off time of 90 sec. was used. Results are expressed as mean±S.E.M. of n experiments. All analyses were conducted using Graph-Pad Prism (GraphPad Software Inc., San Diego, Calif.). The significance of differences between groups was determined by Student t-test (for ex vivo experiments) and two-way analysis of variance (ANOVA) followed by Bonferroni post hoc tests for multiple comparisons (for in vivo experiments). Difference with P<0.05 (*) was considered statistically significant.

[3] = system: carrageenan-induced paw oedema; test: Carrageenan-induced paw oedema, topical application; format: in vivo, mice; conditions: for anti-inflammatory effect at earlier times: 2 and 4 h after application; for anti-inflammatory activity (paw volume / paw oedema): topical on paw, dose equimolar to 1 mg PEA/paw, evaluated 2-96 h after carrageenan
Protocol: Male Swiss mice weighing 25 to 30 g were purchased from Harlan (Udine, Italy). They were housed in stainless steel cages in a room kept at 22±1° C. on a 12/12-h light/dark cycle. […] Each group of mice (n=6) was applied with 0.05 ml of ethanol solutions on dorsal surface of the left paw. After 5 minutes the animal received 50 μl of 1% λ-carrageenan in sterile saline injected into the treated paw. Absolute ethanol was used as vehicle in control animals. […] Paw oedema development was measured by a plethysmometer (Ugo Basile, Milan, Italy). The increase in paw volume was evaluated as the difference between the paw volume measured at each time point and the basal paw volume measured at time 0 (before drug application and carrageenan injection). Results are expressed as mean±S.E.M. of n experiments. All analyses were conducted using Graph-Pad Prism (GraphPad Software Inc., San Diego, Calif.). The significance of differences between groups was determined by Student t-test (for ex vivo experiments) and two-way analysis of variance (ANOVA) followed by Bonferroni post hoc tests for multiple comparisons (for in vivo experiments). Difference with P<0.05 (*) was considered statistically significant.

[4] = mouse, in vivo
Protocol: as §1, §2, §3

Water solubility = format: physicochemical
[5] = 6-96 h after topical application
[6] = after local application, 1.6 mg/paw
[7] = after local application, 1.72 mg/paw

## CCCCCCCCCCCCCCCC(=O)NCCO [PEA, Palmitoylethanolamide, reference compound]
[1]; after 24 h
  PEA levels in the skin: return to baseline
[2]
  anti-hyperalgesic effect at earlier times: significant
  anti-hyperalgesic activity (paw withdrawal latency): markedly reduced
[2]; [5]
  anti-hyperalgesic effect at later times: no effect
[3]
  anti-inflammatory effect at earlier times: significant
  anti-inflammatory activity (paw volume / paw oedema): markedly reduced
[3]; [5]
  anti-inflammatory effect at later times: no effect

## CCCCCCCCCCCCCCCC(=O)NCCOC(=O)CCC(=O)OCCOCCO [derivative 8a, N-Palmitoylethanolamine-O-(succinyl(diethylene glycol))]
[1]; after topical application
  PEA release sustained / maintained up to: up to 72 hours
  accumulation in the skin: accumulate in the skin and release PEA
  kinetic release of PEA in the skin: faster release
  start of PEA release (relevant amount of PEA detectable): 2 h
[1]; whole period of analysis
  total amount accumulated in the skin (PEA+derivative) relative to PEA alone: ~10 times
[2]
  anti-hyperalgesic effect at earlier times: No effect
  anti-hyperalgesic activity (paw withdrawal latency): significant
[2]; [6]
  anti-hyperalgesic activity lasting up to: up to 72 h
[3]
  anti-inflammatory effect at earlier times: No effect
  anti-inflammatory activity (paw volume / paw oedema): significant
[3]; [6]
  anti-inflammatory activity lasting up to: up to 72 h

## CCCCCCCCCCCCCCCC(=O)NCCOC(=O)CCC(=O)OCCOCCOCCO [derivative 8b, N-Palmitoylethanolamine-O-(succinyl(triethylene glycol))]
[2]; [7]
  time from which anti-hyperalgesic activity is significant: ≥ 2 days
[2]
  anti-hyperalgesic activity (paw withdrawal latency): significant
[4]
  accumulation in the skin: accumulate in the skin and release PEA
[3]; [7]
  time from which anti-inflammatory activity is significant: ≥ 2 days
[3]
  anti-inflammatory activity (paw volume / paw oedema): significant

## N-[2-methoxypolyethylene glycol(5000)-O-carbonyl-oxy-ethyl]-palmitamide [Example 7]
Water solubility
  Water solubility: > 10000 µg/mL

Reference: US9522192B2 (EPITECH GROUP S.r.l., priority 2012, dated 2016)
